The source of these data is US20160237511A1, “METHODS FOR D[…] SENSITIVITY TO VIRAL INHIBITORS” (priority 2013, published 2016).

Data set [1] deals with replicons containing patient-derived NS5B regions from GT1, GT2, GT3, and GT4 viruses. The data set is described as follows: PhenoSense HCV NS5B Assay, luciferase replicon panel across genotypes. Conditions: for variation in susceptibility within and between genotypes: GT1-GT4 chimeric replicons, IC50/IC95 fold change. The class given is cell-based, hepatitis C virus (HCV). The procedure: Most samples were received as frozen plasma and were accompanied by information including HCV genotype and/or subtype (e.g., 1a, 1b, 2, 3, 4) and viral load. Samples were thawed and stored in frozen aliquots if necessary, and a 200 μL aliquot was processed. Virus particles were disrupted by addition of lysis buffer containing a chaotropic agent. Genomic viral RNA (vRNA) was extracted from viral lysates using oligo-nucleotide linked magnetic beads. Purified vRNA was used as a template for first-strand cDNA synthesis in a reverse transcriptase (RT) reaction. The resulting cDNA was used as the template for the first round of a nested polymerase chain reaction (PCR) that results in the amplification of the entire NS5B region. Due to the sequence variation between different genotypes, specific RT and first and second round PCR primers were used. If genotype and/or subtype information was not available, more than one primer set can be used sequentially or in parallel.
The second round (nested) PCR amplification primer set contained restriction endonuclease recognition/cleavage sites that enable cloning of NS5B amplification products into an HCV replicon resistance test vector (RTV) for phenotypic drug susceptibility analysis. […] Plasmid DNA was purified from bacterial cultures, using silica column chromatography, and was quantified by spectrophotometry.
Prior to in vitro transcription of the RTV, the plasmid DNA template was linearized by restriction endonuclease digestion and column purified. […] In vitro transcribed RNA was column purified, quantified, and the integrity was evaluated using electrophoretic separation.
RTV RNA was electroporated into a Huh7 cell line, and electroporated cells were incubated in the absence and presence of serially diluted inhibitors. RNA input was monitored by measuring the amount of luciferase activity produced in the electroporated cells at 4 hours post-electroporation. Luciferase activity is expressed as relative light units (RLU). […]

Data set [2] relates to GT1 (a/b) chimeric replicons (patient-derived NS5B). Description: PhenoSense HCV NS5B Assay, GT1 chimeric replicons. The class given is cell-based, hepatitis C virus (HCV). Conditions: GT1a/b NS5B replicons. The procedure:
(§1) RTV RNA was electroporated into a Huh7 cell line, and electroporated cells were incubated in the absence and presence of serially diluted inhibitors. RNA input was monitored by measuring the amount of luciferase activity produced in the electroporated cells at 4 hours post-electroporation. Luciferase activity is expressed as relative light units (RLU). Replication capacity (RC) was determined by evaluating luciferase activity at 72-96 hours postelectroporation in the absence of inhibitor, relative to RNA input and a control reference replicon RTV (Con1). A replication defective Con1 replicon (Con1 polymerase defective) was utilized to determine assay background (data not shown). Inhibitor susceptibility was determined by evaluating the ability of RTVs to replicate in the absence and presence of inhibitor at 72-96 hours post-electroporation. The % inhibition at each serial diluted inhibitor concentration was derived as follows:
(§2) [1−([…])]×100
(§3) Inhibitor susceptibility profiles (curves) were derived from these values, and inhibition data (e.g., IC50, the inhibitor concentration required to reduce virus replication by 50%; and IC95, the inhibitor concentration required to reduce virus replication by 95%) was extrapolated from fitted curves. […]
In general terms: Replicon systems follow genome replication, usually without infectious particles.

Data set [3] concerns GT2 (a/b/k) chimeric replicons (patient-derived NS5B). Description: PhenoSense HCV NS5B Assay, GT2 chimeric replicons. The note with it: for susceptibility of GT2 chimeric replicons: Example 4, IC50 fold change, compared to GT1 chimeric replicons. It is filed as cell-based, hepatitis C virus (HCV). The procedure:
as §1, §2
(§4) Inhibitor susceptibility profiles (curves) were derived from these values, and inhibition data (e.g., IC50, the inhibitor concentration required to reduce virus replication by 50%; and IC95, the inhibitor concentration required to reduce virus replication by 95%) was extrapolated from fitted curves. Inhibition data are reported as fold-change relative to that of a reference RTV (e.g., IC50 (sample)/IC50 (reference)) processed in the same assay batch (e.g., IC50 fold-change (FC) from reference). An example of the PhenoSense® HCV NS5B Assay workflow is shown in FIG. 1, and a representative inhibitor susceptibly curve is shown in FIG. 2.
(§5) To determine the susceptibility of different genotype viruses to various inhibitors, the PhenoSense® HCV NS5B Assay was used. A panel of replicons were generated that contained patient-derived NS5B regions from GT1 (a/b), GT2 (a/b/k), GT3 (a/unknown), and GT4 (a/d/n/unknown) viruses. The various chimeric replicons were used in the phenotypic susceptibility assays described herein. […]

Data set [4] deals with GT3 (a/unknown) chimeric replicons (patient-derived NS5B). Description: PhenoSense HCV NS5B Assay, GT3 chimeric replicons. It is filed as cell-based, hepatitis C virus (HCV). The note with it: Example 4; for susceptibility of GT3 chimeric replicons: IC50 fold change, compared to GT1 chimeric replicons. The procedure:
as §1, §2, §4, §5

The test system of data set [5] is GT4 (a/d/n/unknown) chimeric replicons (patient-derived NS5B). The data set is described as follows: PhenoSense HCV NS5B Assay, GT4 chimeric replicons. It is filed as cell-based, hepatitis C virus (HCV). The note with it: Example 4; IC50 fold change, compared to GT1 chimeric replicons. The procedure: as §1, §2, §3
The next data set concerns HCV infection. The note with it: cited from earlier work.
For data set [6] the following is noted: non-primate animal species; cited from earlier work.

On to `NC(=O)c1ncn([C@@H]2O[C@H](CO)[C@@H](O)[C@H]2O)n1` [RBV, ribavirin], for which the “variation in susceptibility within and between genotypes” value in data set [1] was “more variable between genotypes”. Moreover, in data set [1] (IC fold change vs Con1 reference, range over GT1-GT4 viruses (FIG. 6, FIG. 10)), the “IC FC range” value is on record as 25. Moreover, in data set [2], the “susceptibility among GT1 replicons” value is listed as “similar”. Further, in data set [3], the “susceptibility of GT2 chimeric replicons” value is on record as “statistically significant increases”. Besides, the “susceptibility of GT3 chimeric replicons” value in data set [4] is reported as “particularly susceptible”. In data set [5], the “susceptibility of GT4 chimeric replicons” value is listed as “particularly susceptible”. Besides, the half-life entry in the data set with HCV infection (in the body) is “long half-life”. Also, the anemia result with HCV infection (patients) was “cause of anemia”. For the same compound, the teratogenic effects result in data set [6] was “Significant teratogenic effects”.
For `CC(C)OC(=O)[C@H](C)N[P@](=O)(OC[C@H]1O[C@@H](n2ccc(=O)[nH]c2=O)[C@](C)(F)[C@@H]1O)Oc1ccccc1` [SOF, sofosbuvir], the “variation in susceptibility within and between genotypes” value in data set [1] is recorded as “more variable between genotypes”. For the same compound, the “susceptibility among GT1 replicons” value in data set [2] is recorded as “similar”. In addition, the “susceptibility of GT2a compared to GT2b chimeric replicons” value in data set [3] (Example 4 (FIG. 8, FIG. 9)) is “more increased susceptibility”. Further, the “susceptibility of GT2 chimeric replicons” value in data set [3] was “increased susceptibility”. Besides, in data set [4], the “susceptibility of GT3 viruses compared to GT2” value was “reduced susceptibility” and the “susceptibility of GT3 chimeric replicons” value is “significantly reduced”. Further, in data set [5], the “susceptibility of GT4 chimeric replicons” value was “significantly reduced”. In addition, the “most common adverse effects” value with HCV infection (administered in combination with PEG-IFN) is “fatigue, headache, nausea, insomnia, and anemia”. Further, the reported adverse effects result in the data set with HCV infection (administered in combination with ribavirin) was “fatigue and headache”.
